# Reference: patent US20140336253A1, “COMPOSITION FOR TRANSDERMAL ADMINISTRATION OF RIVASTIGMINE” (priority 2011, published 2014)
# Assay: Transdermal delivery and tolerability of Rivastigmine patches
# Format: in vivo
smiles,measurement,setting,value
"CCN(C)C(=O)Oc1cccc([C@H](C)N(C)C)c1 [Rivastigmine, (S)-{3-[α-(Dimethylamino)ethyl]phenyl}-N-ethyl-N-methylcarbamate]",tolerability,dose of 36 mg free base in up to 80 cm^2 of patches,well tolerated
same,amount absorbed,"patches containing 36 mg Rivastigmine, up to 80 cm^2",12 mg
